According to patent US20240049707A1, “PESTICIDE COMPOSITIONS OF LICOCHALCONE C” (METABOLIC INSIGHTS LTD., priority 2020, published 2024):

Key:
[1] = test system: Fusarium oxysporum; assay: Microplate based screening of bioactivity against Fusarium oxysporum; type: cell-based; settings: 10 μl of 250 ppm solution + 40 μl inoculum, activity grade x repeats x days of activity/252 x 100
Protocol: Diluted in DMSO Licochalcone C was added to microplate wells and mixed with freshly prepared spore suspension and growth of the fungus, starting from frozen spores, was monitored using the plate reader and by visual inspection. […]
Microplate Preparation for Licochalcone C Bioactivity Experiment: • 1) Take a stock solution of purified 1% Licochalcone C in DMSO from the −20 freezer and thaw it on the bench. • 2) Take 1 μl of stock solution of 1% Licochalcone C and dilute up to 250 ppm with 39 μl of water. • 3) Take 10 μl of the diluted (250 ppm) Licochalcone C solution into the wells of the microplate using a multi-pipette. • 4) Add 40 μl of vigorously mixed spore suspension inoculum to the wells of the microplate using a multi-pipette. • 5) Seal the plate with transparent sealer • 6) Shake the plate for 10 min at 2000 RPM to mix the materials with the hyphae suspension • 7) Centrifugate the plate at 1000RCF for is and stop to collect the liquid at the bottom of the plate • 8) Keep the microplate on the bench until it is read by the plate reader • 9) Read the plate using the plate reader • 10) Collect the plates on the bench • 11) Insert collected plates to a plastic box with cloth cover and put the box in the incubator at 25° C. […]

[2] = test system: Pseudomonas syringae; assay: Microplate based screening of bioactivity against Pseudomonas syringae; type: cell-based; settings: 10 μl of 250 ppm solution + 40 μl inoculum, activity grade x repeats x days of activity/168 x 100
Protocol: Pseudomonas Suspension Preparation: • 1) Grow Pseudomonas on LBA plates at 28° C. for 2 days to get a single colony • 2) Transfer a single colony using a sterile toothpick into a 50 ml sterile tube containing 5 ml LB and grow for 24 at 28° C. and 150 RPM • 3) Chill the tube in the fridge for 1 h • 4) Add 7.5 ml of fridge cold, sterile, glycerol solution to the tube—to get 60% glycerol solution • 5) Mix well but gently to get perfect mixing—use vortex at 1000 RPM • 6) Aliquot 100 μl of bacteria suspension in 60% glycerol into 1.5 ml tubes—each aliquot should be enough for screening of 10 microplates • 7) Store the bacteria suspension in 60% glycerol at −20° C.
Pseudomonas Suspension Preparation for Bioactivity Screening Experiment: • 1) Take 1.5 ml tube with 100 μl frozen Pseudomonas suspension from the freezer and thaw it on ice • 2) Prepare in the hood 50 ml tubes with 40 ml fridge cold LB • 3) Mix 40 μl of bacteria suspension with 40 ml fridge cold LB in a 50 ml tube. This amount is enough for activity screening of 10 microplates • 4) Use this suspension for bioactivity screening experiments […]

## COc1c(/C=C/C(=O)c2ccc(O)cc2)ccc(O)c1CC=C(C)C [Licochalcone C, (E)-3-[4-hydroxy-2-methoxy-3-(3-methylbut-2-enyl)phenyl]-1-(4-hydroxyphenyl)prop-2-en-1-one]
[1]
  Relative Activity value (%): 25%
[2]
  Relative Activity value (%): 50%
